Legend:
Test in all cases: relative viability vs DMSO control (72 h) (fraction); higher = more viable cells
SW1353 = test system: SW1353
In short: (§1)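 Sarcoma cell lines in 384-well plates, seeded to reach 80–90% confluence, were given compound after 24 h and kept 72 h at 37 °C, 5% CO2, with 0.1% DMSO vehicle and a 5 µM positive control. Relative viability came from ATPLite as percent growth, averaged over up to triplicate wells. On the rescaled values, 1 equals full and 0 equals none.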

RD-ES = test system: RD-ES
In short: as §1

SW684 = test system: SW684
In short: as §1

KHOS-240S = test system: KHOS-240S
In short: as §1

A204 = test system: A204
In short: as §1

SW872 = test system: SW872
In short: as §1

KHOS-NP = test system: KHOS-NP
In short: as §1

SW982 = test system: SW982
In short: as §1

G401 = test system: G401
In short: as §1

SYO-1 = test system: SYO-1
In short: as §1

HT1080 = test system: HT1080
In short: as §1

SK-ES-1 = test system: SK-ES-1
In short: as §1

Cc1ccc(Nc2nccc(N(C)c3ccc4c(C)n(C)nc4c3)n2)cc1S(N)(=O)=O [Pazopanib]
Conditions	relative viability
A204, 0.00017 µM	1.03
A204, 0.00051 µM	1.06
A204, 0.00152 µM	1.06
A204, 0.00457 µM	1.03
A204, 0.01372 µM	0.977
A204, 0.04115 µM	0.928
A204, 0.1235 µM	0.611
A204, 0.3704 µM	0.348
A204, 1.111 µM	0.342
A204, 3.333 µM	0.294
A204, 10 µM	0.243
G401, 0.00017 µM	0.952
G401, 0.00051 µM	1.01
G401, 0.00152 µM	0.994
G401, 0.00457 µM	0.983
G401, 0.01372 µM	1
G401, 0.04115 µM	0.949
G401, 0.1235 µM	0.909
G401, 0.3704 µM	0.864
G401, 1.111 µM	0.857
G401, 3.333 µM	0.696
G401, 10 µM	0.449
HT1080, 0.00017 µM	1.03
HT1080, 0.00051 µM	1.064
HT1080, 0.00152 µM	1.04
HT1080, 0.00457 µM	1.05
HT1080, 0.01372 µM	1.045
HT1080, 0.04115 µM	1.05
HT1080, 0.1235 µM	1.03
HT1080, 0.3704 µM	1.03
HT1080, 1.111 µM	1.05
HT1080, 3.333 µM	1.07
HT1080, 10 µM	1.07
KHOS-240S, 0.00017 µM	1.03
KHOS-240S, 0.00051 µM	1.04
KHOS-240S, 0.00152 µM	1.05
KHOS-240S, 0.00457 µM	1.04
KHOS-240S, 0.01372 µM	1.03
KHOS-240S, 0.04115 µM	1.02
KHOS-240S, 0.1235 µM	0.975
KHOS-240S, 0.3704 µM	0.974
KHOS-240S, 1.111 µM	0.932
KHOS-240S, 3.333 µM	0.88
KHOS-240S, 10 µM	0.621
KHOS-NP, 0.00017 µM	1.04
KHOS-NP, 0.00051 µM	1.05
KHOS-NP, 0.00152 µM	1.038
KHOS-NP, 0.00457 µM	1.02
KHOS-NP, 0.01372 µM	1.02
KHOS-NP, 0.04115 µM	1.06
KHOS-NP, 0.1235 µM	1.03
KHOS-NP, 0.3704 µM	1.01
KHOS-NP, 1.111 µM	0.99
KHOS-NP, 3.333 µM	0.968
KHOS-NP, 10 µM	0.719
RD-ES, 0.00017 µM	0.95
RD-ES, 0.00051 µM	0.95
RD-ES, 0.00152 µM	0.968
RD-ES, 0.00457 µM	0.962
RD-ES, 0.01372 µM	0.985
RD-ES, 0.04115 µM	0.975
RD-ES, 0.1235 µM	0.96
RD-ES, 0.3704 µM	0.973
RD-ES, 1.111 µM	1
RD-ES, 3.333 µM	0.9311
RD-ES, 10 µM	0.727
SK-ES-1, 0.00017 µM	1.02
SK-ES-1, 0.00051 µM	1.001
SK-ES-1, 0.00152 µM	1.02
SK-ES-1, 0.00457 µM	1.03
SK-ES-1, 0.01372 µM	1.02
SK-ES-1, 0.04115 µM	1.02
SK-ES-1, 0.1235 µM	1.02
SK-ES-1, 0.3704 µM	1
SK-ES-1, 1.111 µM	1.01
SK-ES-1, 3.333 µM	0.916
SK-ES-1, 10 µM	0.524
SW684, 0.00017 µM	1.13
SW684, 0.00051 µM	1.13
SW684, 0.00152 µM	1.19
SW684, 0.00457 µM	1.15
SW684, 0.01372 µM	1.15
SW684, 0.04115 µM	1.129
SW684, 0.1235 µM	1.14
SW684, 0.3704 µM	1.12
SW684, 1.111 µM	1.16
SW684, 3.333 µM	1.13
SW684, 10 µM	0.878
SW872, 0.00017 µM	1
SW872, 0.00051 µM	0.986
SW872, 0.00152 µM	0.988
SW872, 0.00457 µM	0.9911
SW872, 0.01372 µM	0.989
SW872, 0.04115 µM	0.934
SW872, 0.1235 µM	0.9475
SW872, 0.3704 µM	0.968
SW872, 1.111 µM	0.984
SW872, 3.333 µM	0.934
SW872, 10 µM	0.694
SW982, 0.00017 µM	1.04
SW982, 0.00051 µM	1.01
SW982, 0.00152 µM	1.03
SW982, 0.00457 µM	1.03
SW982, 0.01372 µM	1.05
SW982, 0.04115 µM	1.05
SW982, 0.1235 µM	1.03
SW982, 0.3704 µM	1.04
SW982, 1.111 µM	1.06
SW982, 3.333 µM	1.016
SW982, 10 µM	0.729
SW1353, 0.00017 µM	0.962
SW1353, 0.00051 µM	0.952
SW1353, 0.00152 µM	0.94
SW1353, 0.00457 µM	0.977
SW1353, 0.01372 µM	0.96
SW1353, 0.04115 µM	0.947
SW1353, 0.1235 µM	0.946
SW1353, 0.3704 µM	0.939
SW1353, 1.111 µM	0.931
SW1353, 3.333 µM	0.89
SW1353, 10 µM	0.8
SYO-1, 0.00017 µM	0.919
SYO-1, 0.00051 µM	0.901
SYO-1, 0.00152 µM	0.882
SYO-1, 0.00457 µM	0.862
SYO-1, 0.01372 µM	0.823
SYO-1, 0.04115 µM	0.777
SYO-1, 0.1235 µM	0.685
SYO-1, 0.3704 µM	0.576
SYO-1, 1.111 µM	0.506
SYO-1, 3.333 µM	0.471
SYO-1, 10 µM	0.369
